Holding throughout (assay type): in vivo
In experiment [1] the test system is Serum Cholesterol. Briefly: Antihyperlipidemic effect in CF1 male mice: serum cholesterol. The settings on record: for response vs control in vivo at 20 mg/kg: Mus musculus, ip; for antihypercholesteremic activity (in words): mice, compared with others of Table I.
Another experiment concerns Serum Triglycerides. Nature of the experiment: Antihyperlipidemic effect in CF1 male mice: serum triglycerides. As to conditions: for response vs control in vivo at 20 mg/kg: Mus musculus, ip, 384 h; for response vs control in vivo at 20 mg/kg / Serum Triglycerides, Day 16: 20 mg/kg/day I.P., CF1 male mice, N = 6, Day 16; for antihypertriglyceridemic activity (in words): mice, compared with others of Table I. The procedure:
Serum triglycerides were assayed using the commercially available Bio-Dynamics/bmc Triglyceride Kit on blood collected on the 16th day. By comparison to standards, the mg% of cholesterol and mg/dl of triglycerides were calculated. Treated values are expressed as percent of control.

The subject of the next experiment is triglyceride levels. Briefly: Hypolipidemic effect in rodents at 60 mg/kg/day: triglycerides. The procedure:
Of the series of compounds tested thus far, N-(p-chlorobenzoyl)-sulfamate and (o-chlorobenzyl)-sulfonamide appear to be of the most interest. N-(p-chlorobenzoyl)-sulfamic acid sodium salt at 20 mg/kg/day, I.P. lowered serum cholesterol levels 48% and serum triglyceride levels 45% after 16 days dosing.

For experiment [2], the system named is serum cholesterol. Nature of the experiment: Hypolipidemic effect in rodents at 60 mg/kg/day: serum cholesterol. From the text: Of the series of compounds tested thus far, N-(p-chlorobenzoyl)-sulfamate and (o-chlorobenzyl)-sulfonamide appear to be of the most interest. […]
Experiment [3] deals with normal and hyperlipidemic mice. Briefly: Hypolipidemic effect in normal and hyperlipidemic mice, oral and intraperitoneal. The settings on record: orally and intraperitoneally.
[4] abbreviates: 216 h, 20 mg/kg/day I.P., CF1 male mice, N = 6, Day 9, read-out: Serum Cholesterol, Day 9.
The mark [5] stands for this setting: 384 h, 20 mg/kg/day I.P., CF1 male mice, N = 6, Day 16, read-out: Serum Cholesterol, Day 16.
The mark [6] stands for this setting: 20 mg/kg/day, I.P., after 16 days dosing, lowering.

SMILES strings stand for the structures. “Also recorded” adds a separate entry of the source. Like-named read-outs stand apart in the source and are kept apart here.

Regarding `CCOC(=O)C(C)(C)Oc1ccc(Cl)cc1` [Clofibrate, reference compound], the response vs control in vivo at 20 mg/kg in the experiment with Serum Cholesterol [1] (setting [4]) worked out at 98 ± 7%; in the experiment with Serum Cholesterol [1] (setting [5]) it was 97 ± 9%; in the experiment with Serum Triglycerides it was 95 ± 7%.

For `COc1ccc(C(=O)NS(=O)(=O)O)cc1` [Compound 1], the response vs control in vivo at 20 mg/kg with Serum Cholesterol [1] (setting [4]) is 63 ± 6%; with Serum Cholesterol [1] (setting [5]), 60 ± 7%; with Serum Triglycerides, 65 ± 8%. Further, the “antihypercholesteremic activity (in words)” value with Serum Cholesterol [1] is listed as “more active than saccharin in lowering serum cholesterol levels”. Further, the “antihypertriglyceridemic activity (in words)” value in the experiment with Serum Triglycerides is “less active in lowering triglyceride levels”.

With `O=C(NS(=O)(=O)[O-])c1ccc(Cl)cc1.[Na+]` [Compound 2, N-(p-chlorobenzoyl)-sulfamic acid sodium salt], the “lowered serum cholesterol levels” value in the experiment on Serum Cholesterol [1] (setting [6]) was 48%. Further, the response vs control in vivo at 20 mg/kg in the experiment with Serum Cholesterol [1] (setting [4]) was 57 ± 5%; in the experiment with Serum Cholesterol [1] (384 h, read-out: Serum Cholesterol, Day 16) it was 52 ± 6%; with Serum Triglycerides, 55 ± 7%. In addition, the “antihypercholesteremic activity (in words)” value in the experiment on Serum Cholesterol [1] is recorded as “more active than saccharin in lowering serum cholesterol levels”. For the same compound, in the experiment with Serum Triglycerides (listed as p--Cl, sodium salt), the “Serum Triglycerides, Day 16” value was 55±7 % Control. In addition, the “lowered serum triglyceride levels” value with Serum Triglycerides (setting [6]) stood at 45%. Also, in the experiment on Serum Triglycerides, the “antihypertriglyceridemic activity (in words)” value was “less active in lowering triglyceride levels”.

Take `O=C(NS(=O)(=O)O)c1cccc(Cl)c1` [Compound 3]: the response vs control in vivo at 20 mg/kg is 72 ± 5% in the experiment on Serum Cholesterol [1] (setting [4]), 64 ± 6% in the experiment with Serum Cholesterol [1] (setting [5]) and 97 ± 7% with Serum Triglycerides. Besides, the “antihypercholesteremic activity (in words)” value with Serum Cholesterol [1] is given as “more active than saccharin in lowering serum cholesterol levels”. Besides, the “antihypertriglyceridemic activity (in words)” value in the experiment on Serum Triglycerides is on record as “less active in lowering triglyceride levels”.

For the compound `O=C(NS(=O)(=O)O)c1ccccc1Cl` [Compound 4], the response vs control in vivo at 20 mg/kg in the experiment with Serum Cholesterol [1] (setting [4]) worked out at 78 ± 6%; in the experiment on Serum Cholesterol [1] (setting [5]), 51 ± 5%; in the experiment on Serum Triglycerides, 86 ± 8%. Also, the “antihypercholesteremic activity (in words)” value in the experiment on Serum Cholesterol [1] is reported as “more active than saccharin in lowering serum cholesterol levels”. Besides, in the experiment with Serum Triglycerides, the “antihypertriglyceridemic activity (in words)” value is recorded as “less active in lowering triglyceride levels”.

On to `COc1cccc(C(=O)NS(=O)(=O)O)c1` [Compound 5], for which the response vs control in vivo at 20 mg/kg in the experiment with Serum Cholesterol [1] (setting [4]) is 86 ± 7%; with Serum Cholesterol [1] (setting [5]), 72 ± 5%; in the experiment with Serum Triglycerides, 80 ± 7%.

As for `O=C(NS(=O)(=O)O)c1ccccc1` [Compound 7], the response vs control in vivo at 20 mg/kg in the experiment with Serum Cholesterol [1] (setting [4]) was determined as 74 ± 6%; with Serum Cholesterol [1] (setting [5]), 57 ± 5%; with Serum Triglycerides it was 70 ± 6%. Further, the “antihypercholesteremic activity (in words)” value is on record as “more active than saccharin in lowering serum cholesterol levels” with Serum Cholesterol [1] and “quite active” with Serum Cholesterol [1] (listed as unsubstituted prototype). Further, the “antihypertriglyceridemic activity (in words)” value in the experiment on Serum Triglycerides is “less active in lowering triglyceride levels”.

As to `O=C(NS(=O)(=O)O)c1ccc(Br)cc1` [Compound 8], the response vs control in vivo at 20 mg/kg in the experiment on Serum Cholesterol [1] (setting [4]) stood at 75 ± 4%; with Serum Cholesterol [1] (setting [5]) it was 73 ± 7%; with Serum Triglycerides it was 88 ± 3%.

Consider `Cc1ccc(C(=O)NS(=O)(=O)O)cc1` [Compound 9], for which the response vs control in vivo at 20 mg/kg in the experiment on Serum Cholesterol [1] (setting [4]) amounted to 70 ± 3%; with Serum Cholesterol [1] (setting [5]) it was 63 ± 3%; in the experiment on Serum Triglycerides it was 82 ± 4%.

For the compound `CC(=O)c1ccc(C(=O)NS(=O)(=O)O)cc1` [Compound 10], the response vs control in vivo at 20 mg/kg in the experiment on Serum Cholesterol [1] (setting [4]) came out at 95 ± 3%; with Serum Cholesterol [1] (setting [5]) it was 72 ± 4%; in the experiment on Serum Triglycerides, 69 ± 6%.

Consider `CC(C)c1ccc(C(=O)NS(=O)(=O)O)cc1` [Compound 11], for which the response vs control in vivo at 20 mg/kg with Serum Cholesterol [1] (setting [4]) was 90 ± 6%; in the experiment with Serum Cholesterol [1] (setting [5]) it was 77 ± 6%; in the experiment on Serum Triglycerides, 49 ± 8%. The “Serum Triglycerides, Day 16” value in the experiment on Serum Triglycerides (listed as p-isopropyl derivative) came out at 49±8 % Control.

Consider `COc1ccc(CNS(=O)(=O)O)cc1` [Compound 12], for which the response vs control in vivo at 20 mg/kg with Serum Cholesterol [1] (setting [4]) is 88 ± 4%; with Serum Cholesterol [1] (setting [5]) it was 87 ± 2%; in the experiment on Serum Triglycerides it was 91 ± 9%.

Consider `O=S(=O)(O)NCc1ccccc1` [Compound 13], for which the response vs control in vivo at 20 mg/kg was 94 ± 7% in the experiment with Serum Cholesterol [1] (setting [4]), 88 ± 2% with Serum Cholesterol [1] (setting [5]) and 97 ± 8% in the experiment on Serum Triglycerides.

For `O=S(=O)(O)NCc1ccccc1Cl` [Compound 14], the results for the response vs control in vivo at 20 mg/kg with Serum Cholesterol [1] (setting [4]), in the experiment on Serum Cholesterol [1] (setting [5]) and with Serum Triglycerides were 84 ± 8%, 78 ± 2% and 75 ± 2%, respectively. Besides, the “antihypertriglyceridemic activity (in words)” value in the experiment on Serum Triglycerides is reported as “increased antihyertriglyceridemic activity compared to N-benzoylsulfamate 4”.

Consider `O=S(=O)(O)NCc1ccc(Cl)cc1` [Compound 15], for which the response vs control in vivo at 20 mg/kg in the experiment on Serum Cholesterol [1] (setting [4]) came to 94 ± 2%; in the experiment with Serum Cholesterol [1] (setting [5]) it was 93 ± 4%; in the experiment on Serum Triglycerides, 79 ± 7%.

With `NS(=O)(=O)Cc1ccccc1Cl` [Compound 16, (o-Chlorobenzyl)sulfonamide], the response vs control in vivo at 20 mg/kg with Serum Cholesterol [1] (setting [4]) was 99 ± 8%; in the experiment with Serum Cholesterol [1] (setting [5]), 73 ± 6%; in the experiment on Serum Triglycerides it was 52 ± 6%. The “antihypertriglyceridemic activity (in words)” value in the experiment on Serum Triglycerides is “the most active antihypertriglyceridemics in the series”. This compound also came in with a reducing triglyceride levels in the experiment with triglyceride levels of 49%. Besides, the “hypolipidemic agent in rodents (in words)” value with serum cholesterol [2] is “potent hypolipidemic agent in rodents”. The “reducing serum cholesterol levels” value in the experiment with serum cholesterol [2] (60/mg/kg/day) was found to be 71%. For the same compound, the “hypolipidemic activity (in words)” value in experiment [3] was “effective both in normal and hyperlipidemic mice and is active both orally an intraperitonally”.

Regarding `COc1ccccc1CS(N)(=O)=O` [Compound 17], the response vs control in vivo at 20 mg/kg with Serum Cholesterol [1] (setting [4]) amounted to 69 ± 4%; with Serum Cholesterol [1] (setting [5]), 68 ± 7%; in the experiment on Serum Triglycerides, 58 ± 6%. Also, the “antihypercholesteremic activity (in words)” value in the experiment on Serum Cholesterol [1] is on record as “the most active antihypercholesteremic, being equal in activity to saccharin”.

`COc1cccc(CS(N)(=O)=O)c1` [Compound 18]: the response vs control in vivo at 20 mg/kg in the experiment with Serum Cholesterol [1] (setting [4]) turned out to be 84 ± 6%; in the experiment on Serum Cholesterol [1] (setting [5]) it was 79 ± 7%; in the experiment with Serum Triglycerides, 42 ± 4%. The “Serum Triglycerides, Day 16” value in the experiment with Serum Triglycerides came to 42 % Control. In the experiment on Serum Triglycerides, the “antihypertriglyceridemic activity (in words)” value was “more active than saccharin; also recorded: the most active antihypertriglyceridemics in the series”.

Turning to `COc1ccc(CS(N)(=O)=O)cc1` [Compound 19], the response vs control in vivo at 20 mg/kg with Serum Cholesterol [1] (setting [4]) came to 74 ± 8%; with Serum Cholesterol [1] (setting [5]), 70 ± 5%; with Serum Triglycerides, 76 ± 7%.

For `NS(=O)(=O)Cc1ccccc1` [Compound 20], the response vs control in vivo at 20 mg/kg in the experiment with Serum Cholesterol [1] (setting [4]) came to 95 ± 8%. The response vs control in vivo at 20 mg/kg in the experiment on Serum Cholesterol [1] (setting [5]) is 75 ± 5%. Further, in the experiment on Serum Triglycerides, the “Serum Triglycerides, Day 16” value came out at 42 % Control; the response vs control in vivo at 20 mg/kg stood at 42 ± 3%; the “antihypertriglyceridemic activity (in words)” value is “more active than saccharin; also recorded: the most active antihypertriglyceridemics in the series”.

Consider `NS(=O)(=O)Cc1cccc(Cl)c1` [Compound 21], for which the response vs control in vivo at 20 mg/kg in the experiment on Serum Cholesterol [1] (setting [4]) amounted to 92 ± 7%; in the experiment on Serum Cholesterol [1] (setting [5]), 77 ± 5%; with Serum Triglycerides it was 71 ± 5%.

As to `NS(=O)(=O)Cc1ccc(Cl)cc1` [Compound 22], the response vs control in vivo at 20 mg/kg in the experiment with Serum Cholesterol [1] (setting [4]) worked out at 94 ± 7%; in the experiment on Serum Cholesterol [1] (setting [5]) it was 78 ± 8%; in the experiment on Serum Triglycerides, 48 ± 4%. For the same compound, the “antihypertriglyceridemic activity (in words)” value in the experiment on Serum Triglycerides is recorded as “equally active with saccharin; also recorded: the most active antihypertriglyceridemics in the series”.

As to `O=C1NS(=O)(=O)c2ccccc21` [Saccharin, reference compound], the response vs control in vivo at 20 mg/kg in the experiment on Serum Cholesterol [1] (setting [4]) amounted to 77 ± 6%; with Serum Cholesterol [1] (setting [5]) it was 68 ± 7%; in the experiment with Serum Triglycerides, 48 ± 6%.

The values above are taken from patent US4499303A, “Antihyperlipidemic N-benzoylsulfamates, N-benzylsulfamates and benzylsulfonamides” (Research Corporation, priority 1983, dated 1985).
